Assay results reported in patent US9650339B2, “Inhibitors of histone demethylases” (Gilead Sciences, Inc., priority 2013, dated 2017).

What was measured:
KDM4C (JMJD2C) = target: T1, KDM4C (JMJD2C) (Homo sapiens, UniProt Q9H3R0); assay: Histone lysine demethylase AlphaLISA assay, KDM4C; type: biochemical; settings: read-out: KDM4C HDME Inhibition IC50
T1 sequence (Q9H3R0 1-349): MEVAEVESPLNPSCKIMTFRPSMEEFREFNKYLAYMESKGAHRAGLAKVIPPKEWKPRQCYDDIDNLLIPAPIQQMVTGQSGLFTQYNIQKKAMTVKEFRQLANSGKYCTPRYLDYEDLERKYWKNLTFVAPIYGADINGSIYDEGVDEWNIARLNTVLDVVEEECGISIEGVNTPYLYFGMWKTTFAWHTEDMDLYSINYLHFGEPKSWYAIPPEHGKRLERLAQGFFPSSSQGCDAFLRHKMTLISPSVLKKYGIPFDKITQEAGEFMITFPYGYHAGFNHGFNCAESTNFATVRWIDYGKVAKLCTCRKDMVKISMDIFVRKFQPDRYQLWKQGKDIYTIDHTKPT
Procedure: (§1) Assays are performed analogously to the protocol described by PerkinElmer (Roy et al. PerkinElmer Technical Note: AlphaLISA #12, April 2011)
(§2) Enzymes are dissolved in enzyme buffer and incubated for 10 min before being added to 3% DMSO solutions of compounds in enzyme buffer. Incubated for another 10 minutes, before substrate solution is added and the reaction mixture is incubated at room temperature. 10 μL acceptor beads, suspended in Epigenetic Buffer (Perkin Elmer AL008) from stock, are added and the suspension is incubated in the dark at room temperature, before a suspension of streptavidin donor beads (Perkin Elmer 6760002) in Epigenetic Buffer is added. After incubation at room temperature in the dark the plates are read.
BK9M3: Biotin-ARTKQTAR(KMe3)STGGKAPRKQ-NH2 (Caslo, Denmark) […]
(§3) Substrate Solution: Substrate, 25 μM L-Asc, and 10 μM α-KG in Buffer A.

KDM7 (PHF8) = target: T2, KDM7 (PHF8) (Homo sapiens, UniProt Q9UPP1); assay: Histone lysine demethylase AlphaLISA assay, KDM7; type: biochemical; settings: read-out: PHF8 HDME Inhibition IC50
T2 construct: KDM7 (PHF8); BRIC; 1-1322; Bac
Procedure: as §1
as §2, with “read. […]” for “read.”
BK9M2: Biotin-ARTKQTAR(KMe2)STGGKAPRKQ-NH2 (AnaSpec 64359)
BK9M1: Biotin-ARTKQTAR(KMe1)STGGKAPRKQ-NH2 (AnaSpec 64358) […]
as §3

MCF7 cells = assay: Cell proliferation assay MCF7; type: cell-based; settings: MCF7 human breast cancer cells; 120 hours; ATPlite 1 Step
Procedure: MCF7 cells were seeded in multi well plates at a density optimized to give approximately 90% confluent cells at the time of harvest. Cells were incubated for 24 hours before addition of compound. Compounds were diluted in complete medium and added to the plates in duplicates. The final concentration of DMSO was maximum 0.5%. Complete medium used was DMEM with GlutaMAX containing 10% FBS and pen/strep.
120 hours after addition of compounds, the plates were harvested and analyzed by ATPlite 1 Step (Perkin Elmer, cat no 6016739) according to the manufactures recommendation.

KDM5B (PLU-1) = target: T3, KDM5B (PLU-1) (Homo sapiens, UniProt Q9UGL1); assay: Histone lysine demethylase AlphaLISA assay, KDM5B; type: biochemical; settings: read-out: KDM5B HDME Inhibition IC50
T3 sequence (Q9UGL1 1-809): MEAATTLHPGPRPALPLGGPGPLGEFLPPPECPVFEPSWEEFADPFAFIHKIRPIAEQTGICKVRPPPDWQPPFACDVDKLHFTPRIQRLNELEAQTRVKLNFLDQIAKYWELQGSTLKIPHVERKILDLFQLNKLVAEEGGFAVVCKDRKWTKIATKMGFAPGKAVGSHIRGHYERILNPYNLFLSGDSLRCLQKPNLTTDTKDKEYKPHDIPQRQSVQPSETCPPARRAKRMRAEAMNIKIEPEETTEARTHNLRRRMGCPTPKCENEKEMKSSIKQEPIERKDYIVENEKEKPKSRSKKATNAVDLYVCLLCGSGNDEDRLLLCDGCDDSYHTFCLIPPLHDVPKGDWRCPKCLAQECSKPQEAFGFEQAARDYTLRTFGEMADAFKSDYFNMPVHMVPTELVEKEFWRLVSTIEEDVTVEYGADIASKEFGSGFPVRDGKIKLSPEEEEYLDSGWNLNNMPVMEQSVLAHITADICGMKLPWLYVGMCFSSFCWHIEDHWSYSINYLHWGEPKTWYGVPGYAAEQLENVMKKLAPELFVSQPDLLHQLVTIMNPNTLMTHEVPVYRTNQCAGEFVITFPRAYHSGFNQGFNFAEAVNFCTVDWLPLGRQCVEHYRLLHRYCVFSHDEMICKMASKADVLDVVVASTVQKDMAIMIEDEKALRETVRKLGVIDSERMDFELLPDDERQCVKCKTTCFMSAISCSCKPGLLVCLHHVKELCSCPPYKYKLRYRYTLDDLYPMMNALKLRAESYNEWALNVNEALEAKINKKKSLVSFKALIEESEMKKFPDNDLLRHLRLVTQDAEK
Procedure: as §1
as §2, with “read. […]” for “read.”
H3K4M3B: H-ART(Kme3)QTARKSTGGKAPRKQLA-NH-Biotin (Caslo, Denmark) […]
as §3

H3K4me3 mark = assay: Histone lysine demethylase immunofluorescence assay, non-transfected U2OS cells; type: cell-based; settings: Homo sapiens, staining of the H3K4me3 mark, 20 hours incubation with compound
Procedure: U2OS cells were harvested and seeded into multi well plates into media containing compound. The media used was DMEM containing 5% FBS and pen/strep. 20 hours after incubation of cells with compounds, the cells were washed once in PBS, harvested by fixation with formaldehyde 4% aqueous solution, and washed in PBS. Subsequently, the cells were permeabilized in PBS with 0.2% Triton X-100. Blocking was performed in PBS with 0.2% Triton X-100 and 5% FBS. The cells were incubated with αH3K4me3 primary antibody (Cell Signaling, #9751S) in blocking solution over night at 4° C. After incubation with primary antibody, the cells were washed with PBS, incubated with secondary antibody (Alexa fluor 594 goat anti rabbit IgG, Invitrogen, A11012) and Hoechst, (Sigma, 33342) in blocking solution, and washed again with PBS. Finally, PBS was added and high throughput imaging and analysis were performed by an IN Cell Analyzer 1000 (GE Healthcare). The IC50 values were based on an average measure of the staining of the H3K4me3 mark in cells.

KDM6A (UTX) = KDM6A (UTX) (Homo sapiens, UniProt O15550); assay: Histone lysine demethylase AlphaLISA assay, KDM6A; type: biochemical; settings: read-out: KDM6A HDME Inhibition IC50
Procedure: as §1
as §2, with “read. […]” for “read.”
BK27M3: Biotin-ATKAAR(Kme3)SAPATGGVKKPHRY-NH2? (Caslo, Denmark) […]
as §3

KDM2B (FBXL10) = target: T4, KDM2B (FBXL10) (Homo sapiens, UniProt Q8NHM5); assay: Histone lysine demethylase AlphaLISA assay, KDM2B; type: biochemical; settings: read-out: KDM2B HDME Inhibition IC50
T4 sequence (Q8NHM5 1-650): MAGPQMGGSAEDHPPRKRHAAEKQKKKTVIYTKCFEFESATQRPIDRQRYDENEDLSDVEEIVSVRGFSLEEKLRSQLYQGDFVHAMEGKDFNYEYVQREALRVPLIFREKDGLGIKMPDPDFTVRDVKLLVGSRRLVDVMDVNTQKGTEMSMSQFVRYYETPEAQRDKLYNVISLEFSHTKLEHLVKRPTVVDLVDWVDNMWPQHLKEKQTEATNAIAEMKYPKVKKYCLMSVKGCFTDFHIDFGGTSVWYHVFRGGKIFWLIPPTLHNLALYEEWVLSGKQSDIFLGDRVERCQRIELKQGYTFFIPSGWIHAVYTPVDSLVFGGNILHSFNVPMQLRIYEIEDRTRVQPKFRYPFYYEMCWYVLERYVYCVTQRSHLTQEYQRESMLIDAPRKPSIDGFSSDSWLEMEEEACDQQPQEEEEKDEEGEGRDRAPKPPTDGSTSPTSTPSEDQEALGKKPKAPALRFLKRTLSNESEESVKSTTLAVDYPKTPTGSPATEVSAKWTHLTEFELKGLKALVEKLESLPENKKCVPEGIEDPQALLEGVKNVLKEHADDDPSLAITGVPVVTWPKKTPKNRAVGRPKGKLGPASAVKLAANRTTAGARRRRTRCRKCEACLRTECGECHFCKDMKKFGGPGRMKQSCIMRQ
Procedure: as §1
as §2, with “read. […]” for “read.”
BH3K36M2: RKAAPATGGVK(Me2)KPHRYRPGTVK-(BIOTIN)? (Anaspec)
as §3

[1] = tested on: OPM-2 subcutaneous mouse xenograft model of multiple myeloma; assay: Inhibition of tumor growth in mouse xenograft model; type: in vivo, NOD/SCID mice (Mus Musculus); settings: QD × 4/week × 2
Description: Briefly, NOD/SCID mice γ-irradiated with ^60Co (200 rad) (12 animals/group) were inoculated subcutaneously with 8×10^6 OPM-2 cells assisted with Matrigel. Dosing according to the table below started when tumors reached an average size of ˜100 mm^3 (day 15). Dosing continued until the average size of tumors in the vehicle group reached ˜2000 mm^3 (day 31).
Animals were 7 weeks old female NOD/SCID mice (Mus Musculus), supplied by Beijing HFK Bio-Technology Co. Ltd. (Beijing, china). Body weight was approx. 16-23 g. Before commencement of treatment, all animals were weighed and tumor volumes were measured, and mice were assigned into groups using randomized block design based upon their tumor volumes.
OPM-2 tumor cells were maintained in vitro in RPMI1640 medium supplemented with 20% fetal bovine serum at 37° C. in an atmosphere of 5% CO2 in air. The tumor cells were routinely subcultured twice weekly. The cells growing in an exponential growth phase were harvested and counted for tumor inoculation.
Tumor sizes were measured three times weekly in two dimensions using a caliper, and the volume was expressed in mm^3 using the formula: V=0.5 a×b^2 where a and b were the long and short diameters of the tumor, respectively.

T2 sequence (Q9UPP1 37-440 limits assumed): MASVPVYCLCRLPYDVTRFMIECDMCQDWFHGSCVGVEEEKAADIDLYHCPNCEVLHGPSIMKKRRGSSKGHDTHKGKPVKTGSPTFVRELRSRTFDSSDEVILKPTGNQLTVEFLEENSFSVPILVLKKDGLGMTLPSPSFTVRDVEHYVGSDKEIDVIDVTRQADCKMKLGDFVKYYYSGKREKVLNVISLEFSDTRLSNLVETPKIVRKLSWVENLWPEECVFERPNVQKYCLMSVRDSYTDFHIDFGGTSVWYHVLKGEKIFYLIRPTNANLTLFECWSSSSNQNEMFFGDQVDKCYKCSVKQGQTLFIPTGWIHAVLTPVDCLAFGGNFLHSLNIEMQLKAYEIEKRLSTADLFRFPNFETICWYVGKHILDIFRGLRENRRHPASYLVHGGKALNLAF
Chain of KDM6A (UTX) (O15550 919-1401): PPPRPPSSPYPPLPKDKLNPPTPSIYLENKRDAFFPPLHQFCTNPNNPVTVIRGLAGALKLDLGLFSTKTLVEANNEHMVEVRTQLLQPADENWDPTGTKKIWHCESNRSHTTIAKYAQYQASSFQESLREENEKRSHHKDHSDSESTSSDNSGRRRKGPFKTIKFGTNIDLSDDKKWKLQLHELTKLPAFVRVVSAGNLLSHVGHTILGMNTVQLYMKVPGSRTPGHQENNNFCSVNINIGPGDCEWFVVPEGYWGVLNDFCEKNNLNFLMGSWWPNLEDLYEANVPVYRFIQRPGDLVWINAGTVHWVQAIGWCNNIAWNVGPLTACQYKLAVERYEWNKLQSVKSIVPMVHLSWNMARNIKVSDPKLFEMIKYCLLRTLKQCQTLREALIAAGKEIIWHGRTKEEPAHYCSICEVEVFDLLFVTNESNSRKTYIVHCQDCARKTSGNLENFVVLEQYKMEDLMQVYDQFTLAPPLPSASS

SMILES	IC50 (KDM4C (JMJD2C)) [nM]	IC50 (KDM7 (PHF8)) [nM]	EC50 (MCF7 cells) [nM]	IC50 (KDM5B (PLU-1)) [nM]	IC50 (H3K4me3 mark) [nM]	IC50 (KDM6A (UTX)) [nM]	IC50 (KDM2B (FBXL10)) [nM]	Tumor Volume ([1]; day 15 after inoculation (start of dosing)) [mm^3]	Tumor Volume ([1]; day 17 after inoculation) [mm^3]	Tumor Volume ([1]; day 19 after inoculation) [mm^3]	Tumor Volume ([1]; day 21 after inoculation) [mm^3]	Tumor Volume ([1]; day 24 after inoculation) [mm^3]	Tumor Volume ([1]; day 26 after inoculation) [mm^3]	Tumor Volume ([1]; day 28 after inoculation) [mm^3]	Tumor Volume ([1]; day 31 after inoculation) [mm^3]
CCN(CC)CCCCNCc1cc(CNC(=O)C(=O)O)ccn1 [Compound 27, ({[2-({[4-(diethylamino)-butyl]amino}methyl)pyridin-4-yl]methyl}carbamoyl)-formic acid]	> 2500	> 2500	250 to 2500	< 250	< 250	> 2500	> 2500								
CCN(CCN(C)C)C(=O)CNCc1cc(/C=N/CC2(CO)CC2)ccn1 [Compound 88, N-[2-(dimethylamino)-ethyl]-N-ethyl-2-[({4-[({[1-(hydroxymethyl)cyclopropyl]methyl}imino)methyl]pyridin-2-yl}methyl)amino] acetamide]	250 to 2500	> 2500	< 250	< 250	< 250	> 2500	> 2500								
Nc1cccc2c1CN(C1CCC(=O)NC1=O)C2=O (stereo not shown) [Lenolidomide, reference compound]								101 ± 12	156 ± 26	178 ± 36	266 ± 56	395 ± 92	509 ± 116	767 ± 169	1148 ± 175
